Columns and labels:
human μ opiate receptor = target: T1, human μ opiate receptor (Homo sapiens, UniProt P35372); test: Affinity for the human μ opiate receptor ([3H]-naloxone displacement, CHO-K1 receptor membrane preparation, SPA); type: binding; conditions: test concentration of 1 μM; read-out: μ (binding on the μ opioid receptor, % inhibition)
T1 construct: purchased PerkinElmer Life Sciences, Zaventem, Belgium RB-HOM; host or cells: CHO-K1 cells (membrane preparation)
Outline: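 SPA, CHO-K1 hμ membranes; 1 nmol/l [3H]-naloxone; Tris-HCl 50 mmol/l + 0.06% BSA; 90 min RT; NSB with 100 μmol/l naloxone; β-counting. Readout: % inhibition of specific binding at 1 μM test compound.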

[1] = target: T2, serotonin (5-HT) reuptake (Rattus norvegicus, UniProt P31652); test: Inhibition of serotonin (5HT) reuptake in synaptosomes from rat brain; type: biochemical; conditions: test concentration of 10 μM; read-out: 5-HT (inhibition of reuptake of serotonin, % inhibition)
T2 construct: synaptosomes are freshly isolated from areas of the rat brain; from tissue; host or cells: rat brain synaptosomes (P2 fraction)
T2 sequence (P31652 whole entry): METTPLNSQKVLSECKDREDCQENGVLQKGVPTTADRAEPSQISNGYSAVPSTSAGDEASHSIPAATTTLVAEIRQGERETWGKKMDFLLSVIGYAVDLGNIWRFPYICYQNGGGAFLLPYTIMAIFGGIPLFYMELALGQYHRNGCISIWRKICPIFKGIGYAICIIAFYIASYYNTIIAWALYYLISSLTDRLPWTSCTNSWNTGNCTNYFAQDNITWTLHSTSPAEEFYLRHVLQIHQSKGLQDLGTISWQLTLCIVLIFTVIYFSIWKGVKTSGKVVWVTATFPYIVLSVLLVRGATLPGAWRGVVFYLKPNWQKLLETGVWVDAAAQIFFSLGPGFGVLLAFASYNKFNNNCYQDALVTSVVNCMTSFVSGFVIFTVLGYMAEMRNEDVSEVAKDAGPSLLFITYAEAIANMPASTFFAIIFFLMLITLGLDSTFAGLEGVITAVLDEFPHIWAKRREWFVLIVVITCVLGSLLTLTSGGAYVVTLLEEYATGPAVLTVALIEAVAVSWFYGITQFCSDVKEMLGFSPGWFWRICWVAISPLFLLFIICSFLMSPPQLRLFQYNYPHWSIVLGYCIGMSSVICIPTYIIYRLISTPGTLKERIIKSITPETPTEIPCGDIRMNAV
Outline: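 Compounds screened at 10 μM and reported as percent inhibition of serotonin uptake. Uptake measured in a freshly prepared P2 synaptosomal fraction from rat brain.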

T1 sequence (P35372 whole entry): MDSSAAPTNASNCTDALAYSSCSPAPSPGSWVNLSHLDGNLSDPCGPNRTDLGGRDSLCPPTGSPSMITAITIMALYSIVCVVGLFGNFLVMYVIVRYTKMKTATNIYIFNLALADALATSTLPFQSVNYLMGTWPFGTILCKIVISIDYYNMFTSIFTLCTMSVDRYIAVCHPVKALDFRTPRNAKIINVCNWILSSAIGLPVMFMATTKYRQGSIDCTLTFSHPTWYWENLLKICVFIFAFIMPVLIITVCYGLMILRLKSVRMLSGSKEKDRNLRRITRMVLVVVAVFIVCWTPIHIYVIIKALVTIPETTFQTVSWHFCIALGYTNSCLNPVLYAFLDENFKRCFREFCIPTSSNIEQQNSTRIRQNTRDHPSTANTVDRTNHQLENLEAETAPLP

| Compound | inhibition at 1 µM (human μ opiate receptor) | inhibition at 10 µM [1] |
| --- | --- | --- |
| COc1ccc(S(=O)(=O)N(C)CCOCC(=O)NCC2CCC(C(c3ccccc3)N(C)C)CC2)cc1OC (centres unmarked) [Example 169, 2-(2-(3,4-dimethoxy-N-methylphenylsulfonamido)ethoxy)-N-((4-((dimethylamino)(phenyl)methyl)cyclohexyl)methyl)acetamide] | 85% | 94% |
| CN(C)C(c1cccc(F)c1)C1CCC(CNC(=O)COC2CCN(S(=O)(=O)c3cccc(C(F)(F)F)c3)C2)CC1 (centres unmarked) [Example 170, N-((4-((dimethylamino)(3-fluorophenyl)methyl)cyclohexyl)methyl)-2-(1-(3-(trifluoromethyl)phenylsulfonyl)pyrrolidin-3-yloxy)acetamide] | 83% | 89% |
| CN(C)C(c1cccc(F)c1)C1CCC(NC(=O)COCCN(C)S(=O)(=O)c2c(Cl)cccc2Cl)CC1 (centres unmarked) [Example 171, 2-(2-(2,6-dichloro-N-methylphenylsulfonamido)ethoxy)-N-(4-((dimethylamino)(3-fluorophenyl)methyl)cyclohexyl)acetamide] | 84% | 78% |
| CN(C)C(c1cccc(F)c1)C1CCC(NC(=O)COC2CCN(S(=O)(=O)c3ccc(F)cc3)C2)CC1 (centres unmarked) [Example 172, N-(4-((dimethylamino)(3-fluorophenyl)methyl)cyclohexyl)-2-(1-(4-fluorophenylsulfonyl)pyrrolidin-3-yloxy)acetamide] | 78% | 79% |
| COc1cc(C)c(S(=O)(=O)N2CCC(OCC(=O)NCC3CCC(C(c4ccccc4)N(C)C)CC3)C2)c(C)c1 (centres unmarked) [Example 173, N-((4-((dimethylamino)(phenyl)methyl)cyclohexyl)methyl)-2-(1-(4-methoxy-2,6-dimethylphenylsulfonyl)pyrrolidin-3-yloxy)acetamide] | 87% | 95% |
| CN(C)C(c1cccc(F)c1)C1CCC(CCNC(=O)COCCN(C)S(=O)(=O)c2c(Cl)cc(Cl)cc2Cl)CC1 (centres unmarked) [Example 174, N-(2-(4-((dimethylamino)(3-fluorophenyl)methyl)cyclohexyl)ethyl)-2-(2-(2,4,6-trichloro-N-methylphenylsulfonamido)ethoxy)acetamide] | 90% | 97% |
| CN(C)C(c1cccc(F)c1)C1CCC(NC(=O)COCCN(Cc2ccccc2)S(=O)(=O)c2ccccc2)CC1 (centres unmarked) [Example 175, 2-(2-(N-benzylphenylsulfonamido)ethoxy)-N-(4-((dimethylamino)(3-fluorophenyl)methyl)cyclohexyl)acetamide] | 85% | 97% |
| CCN(CCOCC(=O)NC1CCC(C(c2cccc(F)c2)N(C)C)CC1)S(=O)(=O)c1c(C)cc(OC)c(C)c1C (centres unmarked) [Example 176, N-(4-((dimethylamino)(3-fluorophenyl)methyl)cyclohexyl)-2-(2-(N-ethyl-4-methoxy-2,3,6-trimethylphenylsulfonamido)ethoxy)acetamide] | 87% | 90% |
| COc1cc(C)c(S(=O)(=O)N2CCC(OCC(=O)NCCC3CCC(C(c4cccs4)N(C)C)CC3)CC2)c(C)c1C (centres unmarked) [Example 177, N-(2-(4-((dimethylamino)(thiophen-2-yl)methyl)cyclohexyl)ethyl)-2-(1-(4-methoxy-2,3,6-trimethylphenylsulfonyl)piperidin-4-yloxy)acetamide] | 88% | 93% |
| COc1cc(C)c(S(=O)(=O)N2CCC(CCOCC(=O)NC3CCC(C(c4ccc(F)cc4)N(C)C)CC3)CC2)c(C)c1C (centres unmarked) [Example 178, N-(4-((dimethylamino)(4-fluorophenyl)methyl)cyclohexyl)-2-(2-(1-(4-methoxy-2,3,6-trimethylphenylsulfonyl)piperidin-4-yl)ethoxy)acetamide] | 81% | 94% |
| COc1ccc(S(=O)(=O)N2CCCCC2COCC(=O)NCC2CCC(C(c3cccc(F)c3)N(C)C)CC2)cc1 (centres unmarked) [Example 179, N-((4-((dimethylamino)(3-fluorophenyl)methyl)cyclohexyl)methyl)-2-((1-(4-methoxyphenylsulfonyl)piperidin-2-yl)methoxy)acetamide] | 85% | 92% |
| COc1ccc(S(=O)(=O)N2CCCCC2COCC(=O)NCCC2CCC(C(c3cccc(F)c3)N(C)C)CC2)cc1 (centres unmarked) [Example 180, N-(2-(4-((dimethylamino)(3-fluorophenyl)methyl)cyclohexyl)ethyl)-2-((1-(4-methoxyphenylsulfonyl)piperidin-2-yl)methoxy)acetamide] | 90% | 93% |
| COc1ccc(S(=O)(=O)N2CCCC2COCC(=O)NC2CCC(C(c3ccccc3)N(C)C)CC2)cc1 (centres unmarked) [Example 182, N-(4-((dimethylamino)(phenyl)methyl)cyclohexyl)-2-((1-(4-methoxyphenylsulfonyl)pyrrolidin-2-yl)methoxy)acetamide] | 82% | 85% |
| COc1cc(C)c(S(=O)(=O)N(C)CCOCC(=O)NCCC2CCC(C(c3cccc(F)c3)N(C)C)CC2)c(C)c1C (centres unmarked) [Example 183, N-(2-(4-((dimethylamino)(3-fluorophenyl)methyl)cyclohexyl)ethyl)-2-(2-(4-methoxy-N,2,3,6-tetramethylphenylsulfonamido)ethoxy)acetamide] | 83% | 93% |
| COc1ccc(S(=O)(=O)N2CCC(OCC(=O)NCC3CCC(C(c4cccc(F)c4)N(C)C)CC3)C2)cc1OC (centres unmarked) [Example 184, 2-(1-(3,4-dimethoxyphenylsulfonyl)pyrrolidin-3-yloxy)-N-((4-((dimethylamino)(3-fluorophenyl)methyl)cyclohexyl)methyl)acetamide] | 91% | 88% |
| Cc1ccc(S(=O)(=O)N2CCC(OCC(=O)NCC3CCC(C(c4cccc(F)c4)N(C)C)CC3)C2)cc1 (centres unmarked) [Example 185, N-((4-((dimethylamino)(3-fluorophenyl)methyl)cyclohexyl)methyl)-2-(1-tosylpyrrolidin-3-yloxy)acetamide] | 78% | 102% |
| CN(C)C(c1cccc(F)c1)C1CCC(CCNC(=O)COCCN(C)S(=O)(=O)c2ccc(Cl)cc2)CC1 (centres unmarked) [Example 186, 2-(2-(4-chloro-N-methylphenylsulfonamido)ethoxy)-N-(2-(4-((dimethylamino)(3-fluorophenyl)methyl)cyclohexyl)ethyl)acetamide] | 87% | 88% |
| CN(C)C(c1cccc(F)c1)C1CCC(CNC(=O)COCCN(C)S(=O)(=O)c2c(Cl)cc(Cl)cc2Cl)CC1 (centres unmarked) [Example 188, N-((4-((dimethylamino)(3-fluorophenyl)methyl)cyclohexyl)methyl)-2-(2-(2,4,6-trichloro-N-methylphenylsulfonamido)ethoxy)acetamide] | 87% | 98% |
| COc1cc(C)c(S(=O)(=O)N2CCC(OCC(=O)NC3CCC(C(c4cccc(F)c4)N(C)C)CC3)C2)c(C)c1C (centres unmarked) [Example 189, N-(4-((dimethylamino)(3-fluorophenyl)methyl)cyclohexyl)-2-(1-(4-methoxy-2,3,6-trimethylphenylsulfonyl)pyrrolidin-3-yloxy)acetamide] | 84% | 96% |
| COc1ccc(S(=O)(=O)N2Cc3ccccc3CC2COCC(=O)NCCC2CCC(C(c3cccc(F)c3)N(C)C)CC2)cc1 (centres unmarked) [Example 190, N-(2-(4-((dimethylamino) (3-fluorophenyl)methyl)cyclohexyl)ethyl)-2-((2-(4-methoxyphenylsulfonyl)-1,2,3,4-tetrahydroisoquinolin-3-yl)methoxy)acetamide] | 83% | 79% |
| COc1ccc(S(=O)(=O)N2CCCCC2COCC(=O)NCCC2CCC(C(c3cccc(F)c3)N(C)C)CC2)cc1OC (centres unmarked) [Example 191, 2-((1-(3,4-dimethoxyphenylsulfonyl)piperidin-2-yl)methoxy)-N-(2-(4-((dimethylamino)(3-fluorophenyl)methyl)cyclohexyl)ethyl)acetamide] | 85% | 89% |
| CN(C)C(c1cccc(F)c1)C1CCC(CCNC(=O)COCCN(C)S(=O)(=O)c2cccc(C(F)(F)F)c2)CC1 (centres unmarked) [Example 192, N-(2-(4-((dimethylamino)(3-fluorophenyl)methyl)cyclohexyl)ethyl)-2-(2-(N-methyl-3-(trifluoromethyl)phenylsulfonamido)ethoxy)acetamide] | 88% | 94% |
| COc1cc(C)c(S(=O)(=O)N(CCOCC(=O)NC2CCC(C(c3ccccc3)N(C)C)CC2)Cc2ccccc2)c(C)c1C (centres unmarked) [Example 193, 2-(2-(N-benzyl-4-methoxy-2,3,6-trimethylphenylsulfonamido)ethoxy)-N-(4-((dimethylamino) (phenyl)methyl)cyclohexyl)acetamide] | 85% | 92% |
| CN(C)C(c1cccs1)C1CCC(NC(=O)COC2CCN(S(=O)(=O)c3ccccc3)C2)CC1 (centres unmarked) [Example 194, N-(4-((dimethylamino)(thiophen-2-yl)methyl)cyclohexyl)-2-(1-(phenylsulfonyl)pyrrolidin-3-yloxy)acetamide] | 83% | 86% |
| CN(C)C(c1ccccc1)C1CCC(CNC(=O)COC2CCN(S(=O)(=O)c3ccccc3)C2)CC1 (centres unmarked) [Example 195, N-((4-((dimethylamino)(phenyl)methyl)cyclohexyl)methyl)-2-(1-(phenylsulfonyl)pyrrolidin-3-yloxy)acetamide] | 83% | 101% |

Reference: patent US8106055B2, “Substituted amide compounds” (Gruenenthal GmbH, priority 2007, dated 2012)
